Test [1] addresses T1, human recombinant 5-Lipoxygenase (Homo sapiens, UniProt P09917).
T1 sequence (P09917 1-674): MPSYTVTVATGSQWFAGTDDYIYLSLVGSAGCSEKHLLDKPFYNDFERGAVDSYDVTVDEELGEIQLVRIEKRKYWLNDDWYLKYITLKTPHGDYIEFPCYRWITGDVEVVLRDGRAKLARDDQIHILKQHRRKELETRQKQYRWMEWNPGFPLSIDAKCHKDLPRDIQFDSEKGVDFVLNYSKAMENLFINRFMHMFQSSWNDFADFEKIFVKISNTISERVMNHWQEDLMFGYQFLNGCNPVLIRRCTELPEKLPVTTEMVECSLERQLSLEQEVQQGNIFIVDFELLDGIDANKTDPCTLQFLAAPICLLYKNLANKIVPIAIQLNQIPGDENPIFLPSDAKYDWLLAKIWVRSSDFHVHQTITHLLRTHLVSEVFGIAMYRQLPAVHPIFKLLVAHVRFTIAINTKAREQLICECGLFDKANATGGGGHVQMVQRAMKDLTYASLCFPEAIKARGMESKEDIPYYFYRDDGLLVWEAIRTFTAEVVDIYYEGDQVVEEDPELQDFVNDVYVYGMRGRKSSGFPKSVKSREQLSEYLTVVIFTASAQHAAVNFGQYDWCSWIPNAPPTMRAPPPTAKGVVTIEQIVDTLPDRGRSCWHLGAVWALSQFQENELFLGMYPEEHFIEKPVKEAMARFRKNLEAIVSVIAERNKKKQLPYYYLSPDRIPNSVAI
The test can be described thus: 5-Lipoxygenase Enzyme Assay. Type of test: biochemical. To be noted: 70 μM arachidonic acid, 10 minute incubation at room temperature, FOX reagent, absorbance at 620 nm; read-out: inhibition of 5-Lipoxygenase with an IC50. A digest of the protocol: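 Recombinant human 5-LOX in 50 mM Tris-HCl pH 7.4 was preincubated with compound, then 70 μM arachidonic acid was added for 10 min at room temperature. Hydroperoxide was read by FOX reagent (ferric xylenol orange, 1 h complex formation) as absorbance at 620 nm. Five concentrations in triplicate were tested, starting at 10 μM.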

Test [2] has as its system release of the leukotriene LTB4 from a neutrophil cell line (MPRO cell line). The test can be described thus: LTB4-Cell Assay. Type of test: cell-based. The note with it: Mus musculus, 1 h, read-out: inhibition of LTB4 with an EC50. The source says:
• This procedure was used for measuring the release of the leukotriene LTB4 from a neutrophil cell line using a competitive ELISA technique. Materials and Equipments Materials for Cell Preparation and Experiment • MPRO cell line (ATCC, Catalog # CRL-11422) • Calcium ionophore (A23187) (Sigma, Catalog # C7522) • Nordihydroguaiaretic acid (NDGA) (BioMol ,Catalog # EI101-0001) • Retinoic Acid (all-trans) (ATRA) (Sigma, Catalog # 95152) • Sterile, tissue-culture treated 96-well plates (Corning, Catalog # 3614) Materials for LTB4 ELISA • Precoated (Mouse Anti-Rabbit IgG) EIA 96 Well Strip Plates (Cayman, Catalog # 400004) • Leukotriene B4 AChE Tracer (Cayman Catalog # 420110) • Leukotriene B4 EIA Antiserum (Cayman Catalog # 420112) • Ellman's Reagent (Cayman Catalog # 400050) • EIA Buffer Concentrate (10×) (Cayman Catalog # 400060) • Wash Buffer Concentrate (400×) (Cayman Catalog # 400062) • Plastic plate covers (Cayman Catalog # 400012) Procedure
A mouse promyelocytic cell line (MPRO) was used in this assay. These cells are committed immature neutrophils that can be differentiated into mature neutrophils by treatment with 10 μM all-trans retinoic acid for 72 hours.
Following 72 hours of differentiation, cells were stimulated with 1 μM of a calcium ionophore (A23187) in the presence or absence of test compound or vehicle for 1 hour at 37° C. After this time, supernatant was removed from the cells and the LTB4 levels were determined following manufacturer's instructions, using a Leukotriene B4 EIA kit from Cayman (Cat # 5201 11). The negative controls were media samples from differentiated but un-stimulated cells. The compounds were screened at 5 concentrations in quadruplicate starting at 10 μM.

The test system of test [3] is LTB4 production in human whole blood. The test is described as follows: Inhibition of LTB4 Production in Blood. Type of test: cell-based. To be noted: 1 h, 20 μM A23187, 60 minutes at 37° C., LTB4 in plasma by ELISA, read-out: protection against LTB4 at an EC50. How it is done: • Human whole blood (Na citrate) (Stanford Blood Center) • A23187, (Sigma, Cat# C-7522) • Leukotriene B4 EIA reagents (Cayman Chemical, Cat # 520111) • BWA4C (Sigma, Cat # B7559) Procedure Preparation of A23187:
A23187 was prepared as a 10 mM stock solution in DMSO (aliquots can be stored at −20° C.). On the day of the assay the stock solution was diluted as follows: 70 μL 10 mM stock added to 1.6 mL plasma to give a working concentration of 0.42 mM.
From a 30 mM stock solution in DMSO, test articles were diluted to a working concentration of 600 μM in PBS (i.e. 10 μL stock solution+490 μL PBS). This is the highest concentration (gives a final testing concentration of 30 μM). From this 600 μM solution test articles were serially diluted 1:3 in PBS to give a dose-response curve. 10 μL of each concentration of test article was then added to 4 wells of a 96-well plate (i.e. testing in quadruplicate). A positive control compound, BWA4C was used in every assay.
Human whole blood was added to the plates containing compounds (190 μL per well) and mixed well. The blood was incubated with compound at 37° C. for 15 minutes. Following this incubation, 10 μL of 0.42 mM A23187 was added to each well except the negative control wells to give a final calcium ionophore concentration of 20 μM. The plates were then incubated at 37° C. for 60 minutes. After the incubation period, plates were centrifuged for 15 min at 2000 g at 4° C. in sealed microplate buckets. Plasma was then removed for quantitation of LTB4 levels by ELISA.
LTB4 levels in the plasma were determined using a commercially available ELISA kit from Cayman Chemicals. The ELISA was run according to the manufacturer's instructions. The LTB4 levels in the vehicle control sample were then compared to those in which the test article had been added. From this a percent inhibition of LTB4 production by each concentration of test article was calculated and the IC50 was determined.

On to `CONC1CC2(CCC2)Oc2cc(C)c(O)c(C)c21` (stereo in doubt) [(4R)-4-(methoxyamino)-5,7-dimethyl-3,4-dihydrospiro[chromene-2,1′-cyclobutan]-6-ol], for which the concentration for half-maximal inhibition (IC50) – broadly, the point on the concentration scale where inhibition reaches its midpoint – in test [1] was less than 0.3 µM. Further, the EC50 (as a rule, the midpoint of the concentration-response curve) in test [2] is less than 5 µM; in test [3], less than 10 µM.

Turning to `CONC1CC2(CCC2)Oc2cc(C)c(O)c(C)c21` (stereo in doubt) [(4S)-4-(methoxyamino)-5,7-dimethyl-3,4-dihydrospiro[chromene-2,1′-cyclobutan]-6-ol], the IC50 in test [1] is less than 0.3 µM. Further, the half-maximal effective concentration (EC50) in test [2] was less than 5 µM; in test [3] it was less than 10 µM.

For `CC1=Cc2c(C)c(O)c(C)c(C)c2OC12CCC2` [3,5,7,8-tetramethylspiro[chromene-2,1′-cyclobutan]-6-ol], the EC50 is less than 5 µM in test [2] and less than 10 µM in test [3].

With `Cc1c(C)c2c(c(C)c1O)C=C(C(C)O)C1(CCC1)O2` (stereo not drawn) [3-(1-hydroxyethyl)-5,7,8-trimethylspiro[chromene-2,1′-cyclobutan]-6-ol], the half-maximal effective concentration (EC50) in test [2] is less than 5 µM; in test [3], less than 10 µM.

For `Cc1c(C)c2c(c(C)c1O)CC(CO)C1(CCC1)O2` (stereo not drawn) [3-(hydroxymethyl)-5,7,8-trimethyl-3,4-dihydrospiro[chromene-2,1′-cyclobutan]-6-ol], the EC50 in test [2] is less than 5 µM; in test [3] it was less than 10 µM.

Turning to `Cc1c(C)c2c(c(C)c1O)C=C(CO)C1(CCC1)O2` [3-(hydroxymethyl)-5,7,8-trimethylspiro[chromene-2,1′-cyclobutan]-6-ol], the IC50 in test [1] was less than 0.3 µM. Further, the figures for the half-maximal effective concentration (EC50) in test [2] and in test [3] were less than 5 µM and less than 10 µM, respectively.

For the compound `COCC1=Cc2c(C)c(O)c(C)c(C)c2OC12CCC2` [3-(methoxymethyl)-5,7,8-trimethylspiro[chromene-2,1′-cyclobutan]-6-ol], in test [1], the IC50 was less than 0.3 µM. Moreover, the EC50 is less than 5 µM in test [2] and less than 10 µM in test [3].

For `CCONCC1Cc2c(cc(C)c(O)c2C)OC12CCC2` (stereo not drawn) [3-[(ethoxyamino)methyl]-5,7-dimethyl-3,4-dihydrospiro-[chromene-2,1′-cyclobutan]-6-ol], the EC50 in test [2] is less than 5 µM; in test [3], less than 10 µM.

For the compound `CONCC1=Cc2c(cc(C)c(O)c2C)OC12CCC2` [3-[(methoxyamino)methyl]-5,7-dimethylspiro[chromene-2,1′-cyclobutan]-6-ol], the EC50 was less than 5 µM in test [2] and less than 10 µM in test [3].

As to `COC1Cc2c(C)c(O)c(C)c(C)c2OC12CCC2` (stereo not drawn) [3-methoxy-5,7,8-trimethyl-3,4-dihydrospiro[chromene-2,1′-cyclobutan]-6-ol], the figures for the concentration for a half-maximal effect (EC50) in test [2] and in test [3] were less than 5 µM and less than 10 µM, respectively.

Consider `CCONC1CC2(CCC2)Oc2c(C)c(C)c(O)c(C)c21` (stereo not drawn) [4-(ethoxyamino)-5,7,8-trimethyl-3,4-dihydrospiro[chromene-2,1′-cyclobutan]-6-ol], for which, in test [1], the half-inhibitory concentration (IC50) was less than 0.3 µM. Besides, the EC50 in test [2] is less than 5 µM; in test [3], less than 10 µM.

For the compound `Cc1c(C)c2c(c(C)c1O)C(NO)CC1(CCC1)O2` (stereo not drawn) [4-(hydroxyamino)-5,7,8-trimethyl-3,4-dihydrospiro[chromene-2,1′-cyclobutan]-6-ol], the concentration for half-maximal inhibition (IC50) in test [1] was less than 0.3 µM. Also, the figures for the EC50 in test [2] and in test [3] were less than 5 µM and less than 10 µM, respectively.

On to `CCc1cc2c(c(CC)c1O)C(NOC)CC1(CCC1)O2` (stereo not drawn) [4-(methoxyamino)-5,7-diethyl-3,4-dihydrospiro[chromene-2,1′-cyclobutan]-6-ol], for which the half-inhibitory concentration (IC50) in test [1] was less than 0.3 µM. The values for the EC50 in test [2] and in test [3] were less than 5 µM and less than 10 µM, respectively.

Consider `CONC1CC2(CCC2)Oc2cc(C)c(O)c(C)c21` (stereo not drawn) [4-(methoxyamino)-5,7-dimethyl-3,4-dihydrospiro[chromene-2,1′-cyclobutan]-6-ol], for which the IC50 in test [1] is less than 0.3 µM. Moreover, the results for the concentration giving a half-maximal response (EC50) in test [2] and in test [3] were less than 5 µM and less than 10 µM, respectively.

Take `CCOC1c2c(C)c(O)c(C)c(C)c2OCC12CCC2` (stereo not drawn) [4-ethoxy-5,7,8-trimethylspiro[chroman-3,1′-cyclobutan]-6-ol]: the IC50 in test [1] was less than 0.3 µM. For the same compound, the EC50 in test [2] was less than 5 µM; in test [3], less than 10 µM.

`CCOC1CC2(CCC2)Oc2cc(C)c(O)c(C)c21` (stereo not drawn) [4-ethoxy-5,7-dimethyl-3,4-dihydrospiro[chromene-2,1′-cyclobutan]-6-ol]: the IC50 in test [1] is less than 0.3 µM. Also, the half-maximal effective concentration (EC50) was less than 5 µM in test [2] and less than 10 µM in test [3].

Regarding `COC1c2c(C)c(O)c(C)c(C)c2OC2(CCC2)C1C` (stereo not drawn) [4-methoxy-3,5,7,8-tetramethyl-3,4-dihydrospiro[chromene-2,1′-cyclobutan]-6-ol], the EC50 in test [2] was less than 5 µM; in test [3], less than 10 µM.

On to `Cc1c(C)c2c(c(C)c1O)CC(O)C1(CCC1)O2` (stereo not drawn) [5,7,8-trimethyl-3,4-dihydrospiro[chromene-2,1′-cyclobutane]-3,6-diol], for which the EC50 in test [2] is less than 5 µM; in test [3], less than 10 µM.

Consider `CCc1cc2c(c(CC)c1O)CC(CO)C1(CCC1)O2` (stereo not drawn) [5,7-diethyl-3-(hydroxymethyl)spiro[chroman-2,1′-cyclobutan]-6-ol], for which the EC50 is less than 5 µM in test [2] and less than 10 µM in test [3].

As for `Cc1c(C)c2c(c(C)c1O)C(=NO)CC1(CCC1)O2` [6-hydroxy-5,7,8-trimethylspiro[chromene-2,1′-cyclobutan]-4(3H)-one oxime], the EC50 is less than 5 µM in test [2] and less than 10 µM in test [3].

With `CCc1cc2c(c(CC)c1O)CC(COC(N)=O)C1(CCC1)O2` (stereo not drawn) [(5,7-diethyl-6-hydroxyspiro[chroman-2,1′-cyclobutane]-3-yl)methyl carbamate], the half-maximal effective concentration (EC50) was less than 5 µM in test [2] and less than 10 µM in test [3].

`COC(=O)C1CC(c2c(C)c(O)c(C)c3c2OC2(CCC2)CC3)=NO1` (stereo not drawn) [methyl 3-(6-hydroxy-5,7-dimethyl-3,4-dihydrospiro[chromene-2,1′-cyclobutan]-8-yl)-4,5-dihydroisoxazole-5-carboxylate]: in test [1], the half-inhibitory concentration (IC50) was less than 0.3 µM. The concentration giving a half-maximal response (EC50) in test [2] was less than 5 µM.
